Common to all, as to type: cell-based
Assay [1] concerns Acinetobacter baumannii FADDI-AB030. Nature of the assay: microbe, parasite or virus in culture. As to conditions: FADDI-AB030. On the procedure:
MICs of the lipopeptides (trifluoroacetic acid salt, TFA) were determined by broth microdilution in cation-adjusted Mueller-Hinton broth (CAMHB) (Oxoid Australia, Thebarton, SA, Australia) according to the Clinical and Laboratory Standards Institute protocol (Clinical and Laboratory Standards Institute, Performance standards for antimicrobial susceptibility testing; twentyforth informational supplement M100-S24. Wayne, Pa., 2014). Polymyxin B sulphate was employed as the control. […] The following isolates were examined: Pseudomonas aeruginosa ATCC 27853, Pseudomonas aeruginosa FADDI-PA022*, Pseudomonas aeruginosa FADDI-PA01*, Pseudomonas aeruginosa FADDI-PA038*, Acinetobacter baumannii FADDI-AB034*, Acinetobacter baumannii ATCC 17978, Acinetobacter baumannii FADDI-AB030*, Klebsiella pneumoniae FADDI-KP032, Klebsiella pneumoniae FADDI-KP022*, Klebsiella pneumoniae Kp BM1*, Enterobacter cloacae FADDI-EC006, Enterobacter cloacae FADDI-EC001, and Enterobacter cloacae FADDI-EC003 (* Multi drug-resistant clinical isolates, § New Delhi Metallo-beta-lactamase-1 (NDM-1) producing). The results are illustrated in Tables 4 and 5. […]

The subject of assay [2] is Klebsiella pneumoniae Kp BM1. The following applies: Kp BM1. On the procedure:
(§1) MICs of the lipopeptides (trifluoroacetic acid salt, TFA) were determined by broth microdilution in cation-adjusted Mueller-Hinton broth (CAMHB) (Oxoid Australia, Thebarton, SA, Australia) according to the Clinical and Laboratory Standards Institute protocol (Clinical and Laboratory Standards Institute, Performance standards for antimicrobial susceptibility testing; twentyforth informational supplement M100-S24. Wayne, Pa., 2014). Polymyxin B sulphate was employed as the control. Antimicrobial activity of Compounds 1-104 against polymyxin-susceptible Gram-negative bacteria was examined. The following isolates were examined: Pseudomonas aeruginosa ATCC 27853, Pseudomonas aeruginosa FADDI-PA022*, Pseudomonas aeruginosa FADDI-PA01*, Pseudomonas aeruginosa FADDI-PA038*, Acinetobacter baumannii FADDI-AB034*, Acinetobacter baumannii ATCC 17978, Acinetobacter baumannii FADDI-AB030*, Klebsiella pneumoniae FADDI-KP032, Klebsiella pneumoniae FADDI-KP022*, Klebsiella pneumoniae Kp BM1*, Enterobacter cloacae FADDI-EC006, Enterobacter cloacae FADDI-EC001, and Enterobacter cloacae FADDI-EC003 (* Multi drug-resistant clinical isolates, § New Delhi Metallo-beta-lactamase-1 (NDM-1) producing). The results are illustrated in Tables 4 and 5.

For assay [3], the system named is Enterobacter cloacae FADDI-EC006. The following applies: FADDI-EC006. How it is done:
as §1

Assay [4] has as its system Pseudomonas aeruginosa ATCC 27853. As to conditions: ATCC 27853. How it is done: as §1
Assay [5] has as its system Klebsiella pneumoniae FADDI-KP022. The following applies: FADDI-KP022. On the procedure: as §1
Assay [6] relates to Pseudomonas aeruginosa FADDI-PA038. As to conditions: FADDI-PA038. How it is done:
as §1

Assay [7] has as its system Acinetobacter baumannii FADDI-AB034. As to conditions: FADDI-AB034. On the procedure: as §1
Assay [8] relates to Pseudomonas aeruginosa FADDI-PA01. As to conditions: FADDI-. How it is done: as §1
Assay [9] deals with Enterobacter cloacae FADDI-EC003. As to conditions: FADDI-EC003. How it is done: as §1
In assay [10] the test system is Enterobacter cloacae FADDI-EC001. As to conditions: FADDI-EC001. How it is done: as §1
Assay [11] concerns Pseudomonas aeruginosa FADDI-PA022. The following applies: FADDI-PA022. On the procedure: as §1
Assay [12] has as its system Klebsiella pneumoniae FADDI-KP032. The following applies: FADDI-KP032. How it is done: as §1
Assay [13] concerns Acinetobacter baumannii ATCC 17978. The following applies: ATCC 17978. How it is done: as §1

In brackets after ≈: the same amount, converted by molar mass. Where a SMILES comes first, the peptide text is derived from it. Bridges are numbered along the chain shown (N, C = ends). [ ]: non-standard residue; d: D form. The star is where a group is joined. X43 = O=C(c1ccc(-c2ccc(Cl)cc2)cn1)*; X1 = O=C(c1ncc(Cl)cc1Cl)*; Dab = NCC[C@H](N)C(=O)O; Dap = NC[C@H](N)C(=O)O Where only a bound is given, the exact number is not on record here.

Regarding `C[C@@H](O)[C@@H]1NC(=O)[C@H](CCN)NC(=O)[C@H](CCN)NC(=O)[C@H]([C@@H](C)O)NC(=O)[C@@H](Cc2ccccc2)NC(=O)[C@H](CCN)NC(=O)[C@@H](NC(=O)[C@H](CN)NC(=O)[C@@H](NC(=O)[C@H](CCN)NC(=O)c2ncc(Cl)cc2Cl)[C@@H](C)O)CCNC1=O` [Compound 11] (X1-[Dab]T[Dap][Dab][Dab][dF]T[Dab][Dab]T; lactam 4-C), the Minimum inhibitory concentration is 2 µg/mL (≈ 1.65 µM) in assay [1]; 1 µg/mL (≈ 0.826 µM) in assay [2]; under 0.125 µg/mL in assay [3]; 0.25 µg/mL (≈ 0.206 µM) in assay [4]; under 0.125 µg/mL in assay [5]; 1 µg/mL (≈ 0.826 µM) in [6]. The Minimum inhibitory concentration in [7] is 1 µg/mL (≈ 0.826 µM); in [8], 0.5 µg/mL (≈ 0.413 µM); in assay [9], under 0.125 µg/mL; in [10], under 0.125 µg/mL; in [11], 0.25 µg/mL (≈ 0.206 µM); in assay [12] it was under 0.125 µg/mL. Besides, the Minimum inhibitory concentration in assay [13] came out at 1 µg/mL (≈ 0.826 µM).
In the case of `CC(C)C[C@H]1NC(=O)[C@H](CCN)NC(=O)[C@@H](NC(=O)[C@H](CN)NC(=O)[C@@H](NC(=O)[C@H](CCN)NC(=O)c2ncc(Cl)cc2Cl)[C@@H](C)O)CCNC(=O)[C@H]([C@@H](C)O)NC(=O)[C@H](CCN)NC(=O)[C@H](CCN)NC(=O)[C@H](C(C)C)NC1=O` [Compound 13] (X1-[Dab]T[Dap][Dab][Dab][dL]V[Dab][Dab]T; lactam 4-C), the Minimum inhibitory concentration in [1] was 0.5 µg/mL (≈ 0.425 µM); in [2], 0.25 µg/mL (≈ 0.213 µM); in assay [3], under 0.125 µg/mL; in assay [4] it was 0.5 µg/mL (≈ 0.425 µM); in [5] it was 0.25 µg/mL (≈ 0.213 µM); in [6], 1 µg/mL (≈ 0.851 µM). Moreover, the Minimum inhibitory concentration is 2 µg/mL (≈ 1.7 µM) in assay [7]; 0.5 µg/mL (≈ 0.425 µM) in [8]; under 0.125 µg/mL in [9]; under 0.125 µg/mL in [10]; 0.5 µg/mL (≈ 0.425 µM) in [11]; 0.25 µg/mL (≈ 0.213 µM) in assay [12]. Further, the Minimum inhibitory concentration in assay [13] worked out at 1 µg/mL (≈ 0.851 µM).
With `CC(C)C[C@H]1NC(=O)[C@H](CCN)NC(=O)[C@@H](NC(=O)[C@H](CN)NC(=O)[C@@H](NC(=O)[C@H](CCN)NC(=O)c2ccc(-c3ccc(Cl)cc3)cn2)[C@@H](C)O)CCNC(=O)[C@H]([C@@H](C)O)NC(=O)[C@H](CCN)NC(=O)[C@H](CCN)NC(=O)[C@H]([C@@H](C)O)NC1=O` [Compound 15] (X43-[Dab]T[Dap][Dab][Dab][dL]T[Dab][Dab]T; lactam 4-C), the Minimum inhibitory concentration in assay [1] is 1 µg/mL (≈ 0.82 µM); in assay [2] it was 0.5 µg/mL (≈ 0.41 µM); in [3], 0.25 µg/mL (≈ 0.205 µM); in [4], 1 µg/mL (≈ 0.82 µM); in assay [5], under 0.125 µg/mL; in assay [6] it was 1 µg/mL (≈ 0.82 µM). In addition, the Minimum inhibitory concentration in [7] was 0.5 µg/mL (≈ 0.41 µM); in [8] it was 2 µg/mL (≈ 1.64 µM); in assay [9] it was under 0.125 µg/mL; in assay [10], 0.25 µg/mL (≈ 0.205 µM); in [11] it was 2 µg/mL (≈ 1.64 µM); in [12], 0.25 µg/mL (≈ 0.205 µM). In assay [13], this compound came in with a Minimum inhibitory concentration of 0.5 µg/mL (≈ 0.41 µM).
